Read-outs that look alike come from different tables or passages of the source.
Legend:
[1] = system: Empty Vector (EV) dedifferentiated liposarcoma cells (cell lines Lipo863 and Lipo815); test: Migration assay, Empty Vector (EV) control cells; format: cell-based, human; conditions: for reduction in cell migration, Empty Vector (EV): 24 hours of treatment, EV cells, non-cytotoxic concentration, vs control group, FIG. 16A-16B
Experimental: (§1) FIG. 16A-16B. Evaluation of the effect of IWS1 inhibitors identified from in silico screening on the migration of cancer cells. […] The migration assay was performed using two cell groups: Empty Vector (EV, Negative control) and shIWS1 (IWS1 knockdown).
FIG. 17. Evaluation of the dose-dependent effect of IWS1 inhibitors identified from in silico screening on the migration of cancer cells. Cell migration in vitro represents to some extent the ability of cells to metastasize in vivo.
(§2) To evaluate these compounds, we used dedifferentiated cell lines Lipo863 and Lipo815 as an in-vitro model of dedifferentiated liposarcoma (DDLPS). […] FIG. 15A-15C. Using these candidates as potential pharmacological inhibitors of IWS1, we expected to reproduce/mimic phenotypical changes specific for lentiviral IWS1 knockdown. […] We performed a migration assay to assess the ability of cells to migrate after 24 hours of treatment compared to intact cells (EV) as well as IWS1 knockdown cells (shIWS1). Using drug concentrations that would not affect the viability of the cells, we sought to evaluate predominantly the migratory ability of cells. […] FIG. 17.

[2] = system: shIWS1 (IWS1 knockdown) dedifferentiated liposarcoma cells (cell lines Lipo863 and Lipo815); test: Migration assay, IWS1 knockdown (shIWS1) cells; format: cell-based, human; conditions: 24 hours of treatment, vs non-treatment control
Experimental: as §1, §2

Lipo863 cells = test: Spheroid formation in matrigel extracellular matrix scaffold; format: cell-based, human; conditions: 14-day treatment; FIG. 19
From the text: FIG. 19. To evaluate the impact of IWS1 inhibition on spheroid formation, a matrigel extracellular matrix scaffold was employed.
To evaluate the impact of IWS1 inhibition on spheroid formation, a matrigel extracellular matrix scaffold was employed.

unresectable LPS = conditions: patients with unresectable LPS; cited from earlier work
IWS1/Spt6 complex = test: Co-immunoprecipitation of the IWS1/Spt6 complex from treated cells; format: cell-based, human; conditions: Co-IP after 48 hours of treatment; vs DMSO negative control
From the text: The Co-IP method allowed us to analyze IWS1/Spt6 protein complex directly and assess the efficiency of the drug candidates to disrupt the complex.

IWS1 = target: T1, IWS1 (Homo sapiens, UniProt Q96ST2); test: Nuclear/cytosolic fraction analysis of IWS1 distribution; format: cell-based; conditions: 20 uM; 48-hour treatment; DMSO negative control ratio 0.75
T1 construct: document uses human liposarcoma lines; nuclear/cytosolic fractionation
From the text: The binding of the small molecule to IWS1 may cause the redistribution of the latter in the cell (cytoplasmic vs nuclear locations) due to conformational changes of the protein or disruption of its functions. To characterize the effect of a drug candidate on the distribution of IWS1 in the cell, we performed fraction analysis by separating cytoplasmic and nuclear proteins.

[3] = system: invasive DDLPS cell line Lipo246; test: Invasion of DDLPS cells; format: cell-based; conditions: 48 h, read-out: decrease in invasion ability
From the text: FIG. 18. Evaluation of the effect of IWS1 inhibitors identified from in silico screening on the […] of cancer cells. Invasiveness is important parameter used to characterize the aggressive behavior of cancer cells.
Invasiveness is important parameter used to characterize the aggressive behavior of cancer cells.

[4] = system: dedifferentiated liposarcoma (DDLPS) cell line Lipo863; test: Cell cytotoxicity (MTS) assay; conditions: Homo sapiens

Compound	reduction in cell migration, Empty Vector (EV) [1]	reduction in migration, shIWS1 cells [2]	spheroid formation: number of spheroids (Lipo863 cells)	spheroid formation: size of spheroids (Lipo863 cells)	further results
CN1CCC(=C2c3ccccc3C=Cc3ccccc32)CC1 [Cyproheptadine]	24%	no significant reduction			
Clc1ccc2c(c1)CCc1cccnc1C2=C1CCNCC1 [Desloratadine]			significantly reduced	significantly reduced	
COc1cccc2c1C(=O)c1c(O)c3c(c(O)c1C2=O)C[C@@](O)(C(=O)CO)C[C@@H]3O[C@H]1C[C@H](N)[C@H](O)[C@H](C)O1 [Doxorubicin]					5-year survival (unresectable LPS): 20-30%; response rate (unresectable LPS): 25%
CN1CCC(=C2c3ccccc3CC(=O)c3sccc32)CC1 [Ketotifen]	18%	no significant reduction	significantly reduced	significantly reduced	decrease in migration ability (dose-dependent) ([1]; 1-10 uM solutions, FIG. 17): 18-44%; decrease in amount of IWS1/Spt6 complex pulled down (IWS1/Spt6 complex): more than 50%; increase of ratio between nuclear and cytosolic fractions of IWS1 (IWS1): 1.1; inhibition at 20 µM [3]: 30%; IC50 ([4]; read-out: IC50 (cell cytotoxicity assay)): 63 µM; IC50 ([4]; read-out: IC50 (the concentration at which the drug kills 50% of cancer cells)): 63 µM

— patent US20260364061A1, “COMPOUNDS, COMPOSITIONS, AND METHODS FOR THE TREATMENT OF CANCER” (Ohio State Innovation Foundation, priority 2023, published 2026)
